# From patent US11478551B2, “Long-acting adrenomedullin derivative” (University of Miyazaki, priority 2015, dated 2022)
# Marks after values point to notes of the source that are not given here.
# How the values were obtained:
# [1] = Measurement over time of AM concentration in plasma after subcutaneous administration (RIA); format: in vivo; conditions: rat
# Protocol: 1 day, 7 days and 10 days after the start of the administration, 50 mg of pentobarbital was intraperitoneally administered, and 300 μL of blood was collected each time from the tail vain under anesthesia. Immediately, 300 μg of EDTA-2Na and […] of aprotinin were added to the obtained blood sample, and the mixture was centrifuged under conditions involving 10 minutes and 3000 rpm to obtain plasma. The AM concentration in the plasma of each sample was measured by radioimmunoassay (RIA) (Kitamura K, Ichiki Y, Tanaka M et al., Immunoreactive adrenomedullin in human plasma. FEBS Lett., vol. 341, p. 288-90, 1994).
# The compound (37) prepared in experiment III-1 was subcutaneously administered in a single dose of 30 nmol/kg to each rat, and time-dependent change in the concentration in blood of the adrenomedullin derivative was observed. The compound (37) dissolved in physiological saline was subcutaneously administered to each 7- to 8-week-old male Wistar rat (approximately 250 g). 1 day, 2 days, 4 days, 7 days and 9 days after the start of the administration, 50 mg of pentobarbital was intraperitoneally administered, and 300 μL of blood was collected each time from the tail vain under anesthesia. Immediately, 300 μg of EDTA-2Na and […] of aprotinin were added to the obtained blood sample, and the mixture was centrifuged under conditions involving 10 minutes and 3000 rpm to obtain plasma. The AM concentration in the plasma of each sample was measured by RIA.
# Wistar rat = experiment: Blood pressure-lowering effect, single intravenous dose in rat under anesthesia; format: in vivo; conditions: 1 nmol/kg, single dose into the vein
# Protocol: Each compound prepared in experiments I-1 and II-1 or full-length AM was administered in a single dose of 1 nmol/kg into the vein of each rat under anesthesia, and change in the blood pressure of the rat was observed. Each 11 to 14-week-old male Wistar rat was anesthetized by the inhalation of isoflurane. After tracheotomy, inhalational anesthesia was controlled at an isoflurane concentration of 1.5 to 2.5% and a flow rate of 0.6 to 0.8 L/min. The right jugular vein was isolated from the rat, and a catheter tube corresponding to 26 G was inserted thereto. Next, the left carotid artery was isolated from the rat thus treated, and a catheter tube corresponding to 23 G was inserted thereto. From the catheter tube of the right jugular vein, a physiological saline-heparin solution (physiological saline: 100 mL; heparin: 1000 units) was infused at 2.4 mL/hr. […] The catheter inserted in the carotid artery was connected to a pressure transducer. […] In the diagram, the ordinate depicts a difference obtained by subtracting the average blood pressure before the administration of each drug from the average blood pressure at the time of the administration of each drug.
# [2] = system: spontaneously hypertensive rat (SHR); experiment: Effect of suppressing increase in blood pressure in spontaneously hypertensive rat (SHR)-(2); format: in vivo; conditions: 30 nmol/kg subcutaneous single dose, 4 days and 9 days after administration
# Protocol: The compound (37) prepared in experiment III-1 was subcutaneously administered in a single dose of 30 nmol/kg to each SHR, and the blood pressure increase-suppressing effect of the adrenomedullin derivative was observed. The compound (37) was administered in a form dissolved in physiological saline to each 8-week-old male SHR (approximately 200 g). […] of physiological saline was subcutaneously administered in a single dose to each male SHR (approximately 200 g) in the same condition as above in a control group. The blood pressure was measured over time (1 day before and 4 days and 9 days after the administration of the compound (37) or physiological saline). The values of change in the blood pressure obtained 4 days and 9 days after the administration of the compound (37) or physiological saline with respect to the average systolic blood pressure on the day before the administration are shown in FIG. 10.
# AM receptor = target: T1, AM receptor (Homo sapiens, UniProt O60895+Q16602); experiment: Intracellular cAMP concentration-increasing effect in HEK293 cell line caused to express an AM receptor; format: cell-based; conditions: 10^−8 mol/L, 15 minutes, 0.5 mM IBMX; percentage with respect to h.AM (1-52)-Gly;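 further: cAMP inside confluent receptor-expressing cells quantified by ELISA after 15 min exposure to each peptide at 10^−8 mol/L alongside 0.5 mM IBMX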
# T1 construct: expressed in transfected cells; host or cells: HEK293 cell line
# T1 sequence (Q16602 23-461): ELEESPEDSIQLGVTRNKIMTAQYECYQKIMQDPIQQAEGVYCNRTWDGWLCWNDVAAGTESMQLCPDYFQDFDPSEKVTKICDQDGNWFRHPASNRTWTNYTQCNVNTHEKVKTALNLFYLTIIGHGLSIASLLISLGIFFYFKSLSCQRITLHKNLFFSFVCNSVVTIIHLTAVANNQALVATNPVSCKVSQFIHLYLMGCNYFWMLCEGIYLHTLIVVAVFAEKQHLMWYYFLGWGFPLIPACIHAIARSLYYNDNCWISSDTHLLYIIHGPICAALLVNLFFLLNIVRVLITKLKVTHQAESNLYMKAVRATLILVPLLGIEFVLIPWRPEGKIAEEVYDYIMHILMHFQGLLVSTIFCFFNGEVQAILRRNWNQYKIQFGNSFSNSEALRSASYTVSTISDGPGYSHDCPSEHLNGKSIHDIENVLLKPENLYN
# T1 sequence (O60895 43-175): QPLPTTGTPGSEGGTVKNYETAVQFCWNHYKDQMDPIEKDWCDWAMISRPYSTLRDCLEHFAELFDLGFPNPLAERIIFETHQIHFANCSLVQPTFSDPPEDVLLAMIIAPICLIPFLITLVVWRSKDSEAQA
# Protocol: 10^−8 mol/L of each compound, h.AM (1-52), h.AM (6-52), h.AM (11-52), h.AM (16-52), or h.AM (1-52)-Gly was added to confluent HEK293 cells (cell count: 5×10^4) in the presence of 0.5 mM IBMX and incubated for 15 minutes. Then, the intracellular cAMP concentration in the HEK293 cells of each test zone was measured using an ELISA kit for cAMP measurement (GE Healthcare Japan Corp., #RPN2251).
"level at time molar at 24 h ([1]; 10 nmol/kg subcutaneous single dose, 7 days later)","level at time molar at 24 h ([1]; 10 nmol/kg subcutaneous single dose, 10 days later)","level at time molar at 24 h ([1]; male, Wistar, plasma, sc, 10 nmol/kg subcutaneous single dose, 1 day later)",Intracellular cAMP concentration-increasing effect (%) (AM receptor),Compound,rapidly decreased blood pressure immediately after the administration (Wistar rat),increase in the blood pressure compared to the control group [2],"level at time molar at 24 h ([1]; 30 nmol/kg subcutaneous single dose, 1 day later)","level at time molar at 24 h ([1]; 30 nmol/kg subcutaneous single dose, 7 days later)","level at time molar at 24 h ([1]; 30 nmol/kg subcutaneous single dose, 9 days later)"
0 nM,0 nM,0.0067 nM,,"CC[C@H](C)[C@H](NC(=O)[C@H](CCC(N)=O)NC(=O)[C@H](Cc1c[nH]cn1)NC(=O)[C@H](C)NC(=O)[C@H](CC(C)C)NC(=O)[C@H](CCCCN)NC(=O)[C@H](CCC(N)=O)NC(=O)[C@@H](NC(=O)[C@@H](NC(=O)[C@@H]1CSSC[C@H](NC(=O)CNC(=O)[C@H](Cc2ccccc2)NC(=O)[C@H](CO)NC(=O)[C@H](CCCNC(=N)N)NC(=O)[C@H](CC(C)C)NC(=O)CNC(=O)[C@H](CCC(N)=O)NC(=O)[C@H](Cc2ccccc2)NC(=O)[C@H](CC(N)=O)NC(=O)[C@H](CC(N)=O)NC(=O)[C@H](CCSC)NC(=O)[C@H](CO)NC(=O)[C@H](CCC(N)=O)NC(=O)[C@H](CCCNC(=N)N)NC(=O)[C@@H](N)Cc2ccc(O)cc2)C(=O)N[C@@H](CCCNC(=N)N)C(=O)N[C@@H](Cc2ccccc2)C(=O)NCC(=O)N[C@@H]([C@@H](C)O)C(=O)N1)[C@@H](C)O)C(C)C)C(=O)N[C@@H](Cc1ccc(O)cc1)C(=O)N[C@@H](CCC(N)=O)C(=O)N[C@@H](Cc1ccccc1)C(=O)N[C@H](C(=O)N[C@@H](CC(=O)O)C(=O)N[C@@H](CCCCN)C(=O)N[C@@H](CC(=O)O)C(=O)N[C@@H](CCCCN)C(=O)N[C@@H](CC(=O)O)C(=O)N[C@@H](CC(N)=O)C(=O)N[C@H](C(=O)N[C@@H](C)C(=O)N1CCC[C@H]1C(=O)N[C@@H](CCCNC(=N)N)C(=O)N[C@@H](CO)C(=O)N[C@@H](CCCCN)C(=O)N[C@H](C(=O)N[C@@H](CO)C(=O)N1CCC[C@H]1C(=O)N[C@@H](CCC(N)=O)C(=O)NCC(=O)N[C@@H](Cc1ccc(O)cc1)C(N)=O)[C@@H](C)CC)C(C)C)[C@@H](C)O [h.AM (1-52), reference compound]",rapidly decreased blood pressure was observed,,,,
,,,91****^) %,GL-2-branched CH3O-PEG (60k)-CH2-^αNH-(h.AM (1-52)-Gly) [Compound (37)],,suppressed,≥ 34 nM,≥ 1.6 nM,≥ 0.11 nM
